How the values were obtained:
Experiment in all cases: relative viability (nuclei count vs DMSO), 5 days (fraction); higher = more cells survive
Calu-6 = system: Calu-6
Summary of the method: (§1)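 Relative viability equals treated-well nuclei counts divided by vehicle-well nuclei counts. Counts came from 4× images of lung cancer cell lines grown in 1536-well plates for 5 days after pin-tool dosing on the day after seeding. Dosing used one drug alone or a fixed anchor-drug dose plus five library-drug doses (not always all listed) in √10 steps, and values are medians of duplicate plates.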

ABC-1 = system: ABC-1
Summary of the method: as §1

RERF-LC-KJ = system: RERF-LC-KJ
Summary of the method: as §1

NCI-H2085 = system: NCI-H2085
Summary of the method: as §1

EKVX = system: EKVX
Summary of the method: as §1

EBC-1 = system: EBC-1
Summary of the method: as §1

NCI-H1703 = system: NCI-H1703
Summary of the method: as §1

NCI-H1299 = system: NCI-H1299
Summary of the method: as §1

HCC-44 = system: HCC-44
Summary of the method: as §1

IA-LM = system: IA-LM
Summary of the method: as §1

NCI-H2126 = system: NCI-H2126
Summary of the method: as §1

NCI-H1993 = system: NCI-H1993
Summary of the method: as §1

## CCN(CC)CCCCNc1ncc2cc(-c3cc(OC)cc(OC)c3)c(NC(=O)NC(C)(C)C)nc2n1 + CC(C)C[C@H](NC(=O)[C@H](Cc1ccccc1)NC(=O)c1cnccn1)B(O)O [Bortezomib] (partner 0.002 µM)
Calu-6; first compound 0.01 µM
  relative viability: 1.01
Calu-6; first compound 0.03162 µM
  relative viability: 1.11
Calu-6; first compound 0.1 µM
  relative viability: 1.08
Calu-6; first compound 0.3162 µM
  relative viability: 1.11
Calu-6; first compound 1 µM
  relative viability: 0.996
ABC-1; first compound 0.01 µM
  relative viability: 0.325
ABC-1; first compound 0.03162 µM
  relative viability: 0.343
ABC-1; first compound 0.1 µM
  relative viability: 0.342
ABC-1; first compound 0.3162 µM
  relative viability: 0.247
ABC-1; first compound 1 µM
  relative viability: 0.327
RERF-LC-KJ; first compound 0.01 µM
  relative viability: 1.17
RERF-LC-KJ; first compound 0.03162 µM
  relative viability: 1.15
RERF-LC-KJ; first compound 0.1 µM
  relative viability: 1.05
RERF-LC-KJ; first compound 0.3162 µM
  relative viability: 1.21
RERF-LC-KJ; first compound 1 µM
  relative viability: 1
NCI-H2085; first compound 0.01 µM
  relative viability: 0.991
NCI-H2085; first compound 0.03162 µM
  relative viability: 1.03
NCI-H2085; first compound 0.1 µM
  relative viability: 1.09
NCI-H2085; first compound 0.3162 µM
  relative viability: 1.15
NCI-H2085; first compound 1 µM
  relative viability: 0.999
EKVX; first compound 0.01 µM
  relative viability: 1.15
EKVX; first compound 0.03162 µM
  relative viability: 0.957
EKVX; first compound 0.1 µM
  relative viability: 1.2
EKVX; first compound 0.3162 µM
  relative viability: 1.21
EKVX; first compound 1 µM
  relative viability: 1.1
EBC-1; first compound 0.01 µM
  relative viability: 0.554
EBC-1; first compound 0.03162 µM
  relative viability: 0.599
EBC-1; first compound 0.1 µM
  relative viability: 0.634
EBC-1; first compound 0.3162 µM
  relative viability: 0.565
EBC-1; first compound 1 µM
  relative viability: 0.458
NCI-H1703; first compound 0.01 µM
  relative viability: 0.343
NCI-H1703; first compound 0.1 µM
  relative viability: 0.364
NCI-H1703; first compound 0.3162 µM
  relative viability: 0.215
NCI-H1703; first compound 1 µM
  relative viability: 0.236
NCI-H1299; first compound 0.01 µM
  relative viability: 1.11
NCI-H1299; first compound 0.03162 µM
  relative viability: 1.02
NCI-H1299; first compound 0.1 µM
  relative viability: 1.03
NCI-H1299; first compound 0.3162 µM
  relative viability: 0.979
NCI-H1299; first compound 1 µM
  relative viability: 0.954
HCC-44; first compound 0.01 µM
  relative viability: 0.908
HCC-44; first compound 0.03162 µM
  relative viability: 0.883
HCC-44; first compound 0.1 µM
  relative viability: 1.08
HCC-44; first compound 0.3162 µM
  relative viability: 1.03
HCC-44; first compound 1 µM
  relative viability: 0.896
IA-LM; first compound 0.01 µM
  relative viability: 0.868
IA-LM; first compound 0.03162 µM
  relative viability: 0.795
IA-LM; first compound 0.1 µM
  relative viability: 0.977
IA-LM; first compound 0.3162 µM
  relative viability: 0.557
IA-LM; first compound 1 µM
  relative viability: 0.776
NCI-H2126; first compound 0.01 µM
  relative viability: 1.23
NCI-H2126; first compound 0.03162 µM
  relative viability: 1.16
NCI-H2126; first compound 0.1 µM
  relative viability: 1.22
NCI-H2126; first compound 0.3162 µM
  relative viability: 1.19
NCI-H2126; first compound 1 µM
  relative viability: 1.13
NCI-H1993; first compound 0.01 µM
  relative viability: 1
NCI-H1993; first compound 0.03162 µM
  relative viability: 0.981
NCI-H1993; first compound 0.1 µM
  relative viability: 1.26
NCI-H1993; first compound 0.3162 µM
  relative viability: 1.41
NCI-H1993; first compound 1 µM
  relative viability: 1.11

## O=c1cc(-c2cccc3c2Sc2ccccc2S3)oc(N2CCOCC2)c1 + CC(C)C[C@H](NC(=O)[C@H](Cc1ccccc1)NC(=O)c1cnccn1)B(O)O [Bortezomib] (partner 0.002 µM)
Calu-6; first compound 0.08 µM
  relative viability: 0.91
Calu-6; first compound 0.253 µM
  relative viability: 1.02
Calu-6; first compound 0.8 µM
  relative viability: 1.01
Calu-6; first compound 2.53 µM
  relative viability: 0.974
Calu-6; first compound 8 µM
  relative viability: 0.976
ABC-1; first compound 0.08 µM
  relative viability: 0.364
ABC-1; first compound 0.253 µM
  relative viability: 0.312
ABC-1; first compound 0.8 µM
  relative viability: 0.249
ABC-1; first compound 2.53 µM
  relative viability: 0.333
ABC-1; first compound 8 µM
  relative viability: 0.323
RERF-LC-KJ; first compound 0.08 µM
  relative viability: 1.04
RERF-LC-KJ; first compound 0.253 µM
  relative viability: 1.36
RERF-LC-KJ; first compound 0.8 µM
  relative viability: 1.22
RERF-LC-KJ; first compound 2.53 µM
  relative viability: 1.09
RERF-LC-KJ; first compound 8 µM
  relative viability: 1.02
NCI-H2085; first compound 0.08 µM
  relative viability: 1.01
NCI-H2085; first compound 0.253 µM
  relative viability: 1.11
NCI-H2085; first compound 0.8 µM
  relative viability: 1.14
NCI-H2085; first compound 2.53 µM
  relative viability: 0.94
NCI-H2085; first compound 8 µM
  relative viability: 1.09
EKVX; first compound 0.08 µM
  relative viability: 0.977
EKVX; first compound 0.253 µM
  relative viability: 1.11
EKVX; first compound 0.8 µM
  relative viability: 1.1
EKVX; first compound 2.53 µM
  relative viability: 1.06
EKVX; first compound 8 µM
  relative viability: 1.1
EBC-1; first compound 0.08 µM
  relative viability: 0.602
EBC-1; first compound 0.253 µM
  relative viability: 0.535
EBC-1; first compound 0.8 µM
  relative viability: 0.546
EBC-1; first compound 2.53 µM
  relative viability: 0.424
EBC-1; first compound 8 µM
  relative viability: 0.448
NCI-H1703; first compound 0.253 µM
  relative viability: 0.356
NCI-H1703; first compound 0.8 µM
  relative viability: 0.384
NCI-H1703; first compound 2.53 µM
  relative viability: 0.346
NCI-H1703; first compound 8 µM
  relative viability: 0.285
NCI-H1299; first compound 0.08 µM
  relative viability: 1.02
NCI-H1299; first compound 0.253 µM
  relative viability: 1.02
NCI-H1299; first compound 0.8 µM
  relative viability: 1.05
NCI-H1299; first compound 2.53 µM
  relative viability: 0.997
NCI-H1299; first compound 8 µM
  relative viability: 1.01
HCC-44; first compound 0.08 µM
  relative viability: 0.907
HCC-44; first compound 0.253 µM
  relative viability: 1.07
HCC-44; first compound 0.8 µM
  relative viability: 0.837
HCC-44; first compound 2.53 µM
  relative viability: 0.816
HCC-44; first compound 8 µM
  relative viability: 1.03
IA-LM; first compound 0.08 µM
  relative viability: 0.833
IA-LM; first compound 0.253 µM
  relative viability: 0.946
IA-LM; first compound 0.8 µM
  relative viability: 0.799
IA-LM; first compound 2.53 µM
  relative viability: 0.949
IA-LM; first compound 8 µM
  relative viability: 0.905
NCI-H2126; first compound 0.08 µM
  relative viability: 1.13
NCI-H2126; first compound 0.253 µM
  relative viability: 1.13
NCI-H2126; first compound 0.8 µM
  relative viability: 1.12
NCI-H2126; first compound 2.53 µM
  relative viability: 1.1
NCI-H2126; first compound 8 µM
  relative viability: 1.2
NCI-H1993; first compound 0.08 µM
  relative viability: 1.12
NCI-H1993; first compound 0.253 µM
  relative viability: 1.21
NCI-H1993; first compound 0.8 µM
  relative viability: 0.972
NCI-H1993; first compound 2.53 µM
  relative viability: 1.04
NCI-H1993; first compound 8 µM
  relative viability: 1.2

Reference: the supplement of paper PMC10307832
